Source: US20240148821A1, “PHARMACEUTICAL USE OF CYCLIC PEPTIDE COMPOUND” (CHUGAI SEIYAKU KABUSHIKI KAISHA, priority 2021, published 2024)
Numbered stars: 1 amine (or outer) side, 2 acyl side, 3 side chain; on linkers, the order of the positions; unused ones are H or OH. Bridge positions count the residues as written; N and C are the ends. Square brackets hold non-standard residues; d marks the D form. Peptide text beside a SMILES is read from it. * marks the point of attachment. hPhe(3-Cl-4-CF3) = N[C@@H](CCc1ccc(C(F)(F)F)c(Cl)c1)C(=O)O; hPhe(3-F,4-CF3) = N[C@@H](CCc1ccc(C(F)(F)F)c(F)c1)C(=O)O; NMePhe(4-CF3) = CN[C@@H](Cc1ccc(C(F)(F)F)cc1)C(=O)O; NMePhe(4-Me) = CN[C@@H](Cc1ccc(C)cc1)C(=O)O; NMedβ3hAla = C[C@H](CC(=O)[*:2])N(C)[*:1]; NMeAla(cPent) = CN[C@@H](CC1CCCC1)C(=O)O; NMeGly(cPent) = CN[C@H](C(=O)O)C1CCCC1; NMeCha = CN[C@@H](CC1CCCCC1)C(=O)O; NMeGly(cPr) = CN[C@H](C(=O)O)C1CC1; NMeAhp(2) = CCCCC[C@H](NC)C(=O)O; NMeChg = CN[C@H](C(=O)O)C1CCCCC1; NMeI = CC[C@H](C)[C@H](NC)C(=O)O; NMeD = CN[C@@H](CC(=O)O)C(=O)O; NMeL = CN[C@@H](CC(C)C)C(=O)O; NMeV = CN[C@H](C(=O)O)C(C)C; d(β3hA) = C[C@@H](N)CC(=O)O; NMeS = CN[C@@H](CO)C(=O)O; Morpholide = C1CN(*)CCO1; NMeA = CN[C@@H](C)C(=O)O; NMeAib = CNC(C)(C)C(=O)O; Piperidide = C1CCN(*)CC1; Ac5c = NC1(C(=O)O)CCCC1; Aze = O=C(O)[C@@H]1CCN1; CH2CMe2OH = CC(C)(O)C*; Aib = CC(C)(N)C(=O)O; Isopentyl = CC(C)CC*; NEtG = CCNCC(=O)O; Sar = CNCC(=O)O

Key:
[1] = target: protein-protein interaction between Kras and SOS1 (biotin-tagged human Kras loaded with GDP, His-tagged human SOS1) (Homo sapiens (Human), UniProt P01116, G12D); experiment: Protein-protein interaction inhibition between Kras and SOS1 (KrasG12D-SOS PPI) using AlphaScreen; assay type: biochemical; details: AlphaScreen; biotin-tagged human Kras loaded with GDP, His-tagged human SOS1; read-out: KRAS G12D-SOS PPI IC50;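 note: kras produced in E. coli, Ni-coupled donor beads and streptavidin acceptor beads, excitation 680 nm with emission detected at 520–620 nm via singlet oxygen transfer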
[2] = system: Human pancreatic cancer cell line AsPC-1 (G12D mutation Kras); experiment: AsPC-1 cell growth inhibition (AsPC-1 CGI); assay type: cell-based; details: read-out: AsPC-1 cell growth inhibition, 50% growth inhibitory concentration (IC50 value); 96 hours, CellTiter-Glo, values classified in ranges
Description: Test compounds were serially dilated with dimethyl sulfoxide, and 200 nL was then dispensed to a U-bottom 96-well plate using Labcyte Echo. […] The cell suspension was dispensed to a. plate containing a test compound at 100 μL per well and incubated at 37° C. in a 5% carbon dioxide gas incubator. 96 hours later, 80 μL of CellTiter-Glo (Promega) was added to each well and fluorescence was measured.

Row | Structure (SMILES) | IC50 [1] | IC50 [2]
1 | CC[C@H](C)[C@@H]1NC(=O)[C@H](CC(C)C)N(C)C(=O)C[C@@H](C(=O)N2CCCCC2)N(C)C(=O)[C@H](C(C)C)N(C)C(=O)C2(CCCC2)NC(=O)[C@@H]2CCCN2C(=O)[C@H](CCc2ccc(C(F)(F)F)c(Cl)c2)NC(=O)CN(C)C(=O)[C@H](C2CC2)N(C)C(=O)[C@@H]2CCN2C(=O)[C@H](C)N(C)C1=O [Compound 1677] ([NMeL]I[NMeA][Aze][NMeGly(cPr)][Sar][hPhe(3-Cl-4-CF3)]P[Ac5c][NMeV][NMeD]-Piperidide; lactam N-11) | 8.6 nM | > 500 nM
2 | CCCCC[C@H]1C(=O)N[C@@H]([C@@H](C)CC)C(=O)N[C@@H](C)C(=O)N2CC[C@H]2C(=O)N(C)[C@@H](Cc2ccc(C(F)(F)F)cc2)C(=O)N(C)CC(=O)N[C@@H](CCc2ccc(C(F)(F)F)c(Cl)c2)C(=O)N2CCC[C@H]2C(=O)NC2(CCCC2)C(=O)N(C)[C@@H]([C@@H](C)CC)C(=O)N(C)[C@H](C(=O)N2CCOCC2)CC(=O)N1C [Compound 54] ([NMeAhp(2)]IA[Aze][NMePhe(4-CF3)][Sar][hPhe(3-Cl-4-CF3)]P[Ac5c][NMeI][NMeD]-Morpholide; lactam N-11) | 1.9 nM | ≤ 20 nM
3 | CC[C@H](C)[C@@H]1NC(=O)[C@H](CC2CCCC2)N(C)C(=O)C[C@@H](C(=O)N2CCOCC2)N(C)C(=O)[C@H]([C@@H](C)CC)N(C)C(=O)C2(CCCC2)NC(=O)[C@@H]2CCCN2C(=O)[C@H](CCc2ccc(C(F)(F)F)c(Cl)c2)NC(=O)CN(C)C(=O)[C@H](Cc2ccc(C(F)(F)F)cc2)N(C)C(=O)[C@@H]2CCN2C(=O)[C@H](C)NC1=O [Compound 1371] ([NMeAla(cPent)]IA[Aze][NMePhe(4-CF3)][Sar][hPhe(3-Cl-4-CF3)]P[Ac5c][NMeI][NMeD]-Morpholide; lactam N-11) | 1.6 nM | ≤ 20 nM
4 | CC[C@H](C)[C@@H]1NC(=O)[C@H](C)N(C)C(=O)C[C@@H](C)N(C)C(=O)[C@H](CC(C)C)NC(=O)C(C)(C)N(C)C(=O)[C@H](CC(C)C)NC(=O)[C@H](CCc2ccc(C(F)(F)F)c(F)c2)NC(=O)CN(C)C(=O)[C@H](CC2CCCCC2)N(C)C(=O)CN(C)C(=O)CN(C)C1=O [Compound 842] (cyclo(I[Sar][Sar][NMeCha][Sar][hPhe(3-F,4-CF3)]L[NMeAib]L[NMedβ3hAla][NMeA])) | 43 nM | > 500 nM
5 | CC[C@H](C)[C@@H]1NC(=O)[C@H](CC(C)C)N(C)C(=O)C[C@@H](C)N(C)C(=O)[C@H](C(C)C)N(C)C(=O)C2(CCCC2)NC(=O)[C@@H]2CCCN2C(=O)[C@H](CCc2ccc(C(F)(F)F)c(Cl)c2)NC(=O)CN(C)C(=O)[C@H](Cc2ccc(C)cc2)N(C)C(=O)[C@@H]2CCN2C(=O)[C@H](C)N(C)C1=O [Compound 1809] (cyclo([Ac5c][NMeV][NMedβ3hAla][NMeL]I[NMeA][Aze][NMePhe(4-Me)][Sar][hPhe(3-Cl-4-CF3)]P)) | 1.4 nM | ≤ 20 nM
6 | CC[C@H](C)[C@@H]1NC(=O)[C@H](CC(C)C)N(C)C(=O)C[C@@H](C(=O)N2CCCCC2)N(C)C(=O)[C@H](C2CCCC2)N(C)C(=O)C2(CCCC2)NC(=O)[C@@H]2CCCN2C(=O)[C@H](CCc2ccc(C(F)(F)F)c(Cl)c2)NC(=O)CN(C)C(=O)[C@H](Cc2ccc(C(F)(F)F)cc2)N(C)C(=O)[C@@H]2CCN2C(=O)[C@H](C)N(C)C1=O [Compound 370] ([NMeL]I[NMeA][Aze][NMePhe(4-CF3)][Sar][hPhe(3-Cl-4-CF3)]P[Ac5c][NMeGly(cPent)][NMeD]-Piperidide; lactam N-11) | 0.35 nM | ≤ 20 nM
7 | CC[C@H](C)[C@@H]1NC(=O)[C@H](CC(C)C)N(C)C(=O)C[C@@H](C(=O)N2CCCCC2)N(C)C(=O)[C@H](C2CCCCC2)N(C)C(=O)C2(CCCC2)NC(=O)[C@H](CC2CCCC2)N(C)C(=O)[C@H](CCc2ccc(C(F)(F)F)c(Cl)c2)NC(=O)CN(C)C(=O)[C@H](CC2CCCCC2)N(C)C(=O)CN(C)C(=O)CN(C)C1=O [Compound 643] ([NMeL]I[Sar][Sar][NMeCha][Sar][hPhe(3-Cl-4-CF3)][NMeAla(cPent)][Ac5c][NMeChg][NMeD]-Piperidide; lactam N-11) | 27 nM | > 500 nM
8 | CC[C@H](C)[C@@H]1NC(=O)[C@H](COCC(C)(C)O)N(C)C(=O)C[C@@H](C)NC(=O)[C@H](CC(C)C)N(C)C(=O)C(C)(C)NC(=O)[C@H](CC(C)C)N(C)C(=O)[C@H](CCc2ccc(C(F)(F)F)c(Cl)c2)NC(=O)CN(C)C(=O)[C@H](COCCC(C)C)N(C)C(=O)CN(C)C(=O)CN(CC)C1=O [Compound 1476] (cyclo([Aib][NMeL][d(β3hA)][NMeS](CH2CMe2OH)I[NEtG][Sar][NMeS](Isopentyl)[Sar][hPhe(3-Cl-4-CF3)][NMeL])) | 46 nM | > 500 nM
